Source: PMC8765437, “GSK3640254 Is a Novel HIV-1 Maturation Inhibitor with an Optimized Virology Profile” (Antimicrobial Agents and Chemotherapy, 2022)

Legend:
[1] = Human serum protein binding, ultracentrifugation assay; assay type: in vitro ADME
[2] = Cytotoxicity in MT-2 cells (MTS, 4-day incubation); assay type: cell-based; settings: human, read-out: half-maximal cytotoxic concentration (CC50)
Protocol: The assay was performed in a phenol red-free medium at an initial cell density of 10,000 per well in a 96-well plate format. Cell viability was determined using a redox dye assay [3-(4,5-dimethylthiazol-2-yl)-5-(3-carboxymethoxyphenyl)-2-(4-sulfophenyl)-2H-tetrazolium, inner salt (MTS); Promega, Madison, WI] according to the manufacturer’s protocol. Half-maximal cytotoxic concentration values were calculated by fitting to a 4-parameter logistic formula y = A + {[B − A]/1 + [(C/x)^d]}, where A and B are minimal and maximal percent inhibition, respectively, C is the EC50, d is the Hill slope, and x represents compound concentrations.

[3] = tested on: p25 cleavage in HIV-1 Gag VLPs; assay: Gag p25 cleavage assay (delipidated VLPs, HIV-1 protease, LC-MS); assay type: biochemical; settings: WT and ΔV370 VLPs; 3 μM compound
Protocol: (§1) Virus-like particles of 3 genotypes were constructed and tested. In addition to WT VLP, a VLP with V370 deleted (ΔV370; a genotype characteristic of subtype C viruses) and one with the known resistance substitution A364V were analyzed. […] A364V is a substitution adjacent to the p25/p24 cleavage site (L363/A364), and in this assay (Fig. 3C), neither MI inhibited production of p24 in the presence of HIV-1 protease.
(§2) As previously described ([22]), VLPs (∼100 ng) were diluted (1:10) in 10 μL of VLP buffer (50 mM MES [pH 6.0], 100 mM NaCl, 2 mM EDTA, and 2 mM dithiothreitol) supplemented with 0.06% Triton X-100 and incubated at room temperature for 10 to 30 min to remove lipid bilayers. […] Samples (1 μL) were taken at 0-, 0.5-, 2-, and 4-h time points and underwent trypsin digestion. […] Peptide samples were then analyzed by liquid chromatography with mass spectrometry using a nanoAcquity ultraperformance liquid chromatography system (Waters Corporation, Milford, MA) interfaced with an LTQ XL Orbitrap mass spectrometer (Thermo Fisher Scientific, Waltham, MA). […]
(§3) Signals for SP1 peptides were normalized to an internal protease fragment at the C-terminal end of Gag, and data were analyzed using Thermo Xcalibur processing software 3.0.63 and Thermo Xcalibur Quanbrowser software 3.0.63 (Thermo Fisher Scientific) as described previously ([23]).

[4] = tested on: T1, p25 cleavage in HIV-1 Gag VLPs; assay: as above; assay type: biochemical; settings: A364V VLP; 3 μM compound
T1 construct: made in house
Protocol: as §1, §2, §3

[5] = tested on: NL4-3P373S viruses (WT and V370A); assay: Resistance selection by serial passage in increasing GSK’254 concentrations; assay type: cell-based, HIV-1; settings: starting concentration 2 nM GSK’254
Protocol: NL4-3GagP373S (WT) and the SDM NL4-3 GagP373SV370A (V370A) were used to start the selections. These variants were selected as parent virus based on common WT and V370A expression in HIV-1 subtypes (47% WT and ∼36% V370A as indicated by the LANL HIV sequence database (https://www.hiv.lanl.gov/content/index). Each selection was performed in triplicate, starting with 2 × 10^6 MT-2 cells infected with each virus at an MOI of 0.005 (50% tissue culture infectious dose determined by CPE and cultured in 2 × 10^5 cells/mL in compound-containing medium). Each passage was terminated at ∼100% CPE. To passage virus, the cultures were centrifuged, and 25 μL of viral supernatants was transferred into 10 mL of a fresh cell culture in the presence of a 2-fold-increased compound concentration.

[6] = Estimation of minimum plasma concentration required for clinical efficacy; set-up: species or system human; settings: multiples higher than PBA EC90 of the vast majority of HIV-1 isolates
Text: These viruses were chosen to be representative of the population of Gag genes as a whole, including known polymorphism-containing viruses with reduced susceptibility to GSK’795, as well as SDM viruses with multiple changes that had previously been identified as relevant for susceptibility to earlier MIs ([7], [11]).

[7] = in vivo, cited from earlier work

In the case of `C=C(C)[C@@H]1CC[C@]2(NCCN3CCS(=O)(=O)CC3)CC[C@]3(C)[C@H](CC[C@@H]4[C@@]5(C)CC=C(C6=CC[C@@](CF)(C(=O)O)CC6)C(C)(C)[C@@H]5CC[C@]43C)[C@@H]12` [GSK’254], the fraction unbound [1] is reported as 0.14, the CC50 at 4 days [2] is reported as 13 ± 6 µM and the “inhibition of p25 cleavage” value [3] is reported as “significantly better inhibition of p25 cleavage than GSK’795”. For the same compound, the “inhibition of p25 cleavage” value [4] was “failed to impact cleavage”, the “average time until sufficient viral titer to permit passage 1” value [5] was 24 days and the “estimated Cmin (target human steady-state serum concentration)” value [6] was 150 nM. The safety and tolerability ([7]; po) was “acceptable safety and tolerability” and the gastrointestinal intolerability [7] was “only mild gastrointestinal intolerability”.
